We go through 24 compounds from patent US20230183239A1, “ECTONUCLEOTIDE PYROPHOSPHATASE-PHOSPHODIESTERASE 1 (ENPP-1) INHIBITORS AND USES THEREOF” (AbbVie Inc., priority 2017, published 2023).

Where only a bound is given, the exact number is not on record here.

What all share (format): biochemical
Assay [1] deals with T1, ENPP1 (Homo sapiens, UniProt P22413).
T1 sequence (P22413 1-925): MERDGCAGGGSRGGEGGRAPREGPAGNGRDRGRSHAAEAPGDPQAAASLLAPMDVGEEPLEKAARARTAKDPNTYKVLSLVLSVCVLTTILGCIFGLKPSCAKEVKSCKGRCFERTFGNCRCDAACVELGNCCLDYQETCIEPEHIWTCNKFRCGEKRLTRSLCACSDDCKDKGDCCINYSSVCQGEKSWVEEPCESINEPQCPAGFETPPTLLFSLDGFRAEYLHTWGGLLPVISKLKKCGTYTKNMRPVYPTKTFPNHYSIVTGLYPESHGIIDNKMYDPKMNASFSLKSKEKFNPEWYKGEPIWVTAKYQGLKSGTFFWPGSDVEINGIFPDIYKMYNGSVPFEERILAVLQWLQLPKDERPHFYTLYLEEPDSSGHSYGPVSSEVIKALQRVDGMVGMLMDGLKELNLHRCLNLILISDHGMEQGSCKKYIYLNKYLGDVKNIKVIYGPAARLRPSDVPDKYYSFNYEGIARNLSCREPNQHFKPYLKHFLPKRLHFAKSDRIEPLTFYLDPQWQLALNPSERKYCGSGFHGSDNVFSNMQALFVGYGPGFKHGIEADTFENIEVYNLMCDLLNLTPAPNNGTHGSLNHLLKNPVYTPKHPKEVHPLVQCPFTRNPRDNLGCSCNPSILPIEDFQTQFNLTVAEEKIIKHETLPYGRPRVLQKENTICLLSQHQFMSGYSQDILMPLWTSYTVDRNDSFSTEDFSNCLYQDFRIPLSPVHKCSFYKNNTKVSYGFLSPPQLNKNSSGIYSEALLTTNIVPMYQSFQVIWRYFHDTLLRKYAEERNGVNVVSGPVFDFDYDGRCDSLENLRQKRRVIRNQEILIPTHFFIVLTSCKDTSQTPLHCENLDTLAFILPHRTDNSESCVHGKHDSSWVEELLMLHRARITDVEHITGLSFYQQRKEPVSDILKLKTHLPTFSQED
Description: Substrate selectivity ratio, inhibition of cGAMP hydrolysis versus ATP hydrolysis. As to conditions: ratio Ki AMP-pNP / Ki cGAMP. On the procedure:
The selectivity ratios for inhibition of cGAMP hydrolysis versus ATP hydrolysis were then calculated as follows: […]

Assay [2] deals with T1, ENPP1. The assay is described as follows: ENPP1 enzyme assay with AMP-pNP substrate (hydrolysis of ATP analog). As to conditions: AMP-pNP substrate (ATP analog); Ki from IC50 by Cheng-Prusoff; read-out: ENPP1 Inhibition _AMP-pNP: Ki. On the procedure: The ENPP1 assay with AMP-pNP substrate is conducted in a buffer containing 50 mM Tris-HCl (pH 8.5)/ 250 mM NaCl/0.5 mM CaCl2/1 µM ZnCl2/0.1% DMSO. Inhibitors are added at final concentrations ranging between 10 µM and 30 pM depending on the compound. Duplicate wells are run at each inhibitor concentration. The final assay volume is 40 µL and human recombinant ENPP1 is present at 60 ng/well. The assay is initiated by the addition of substrate (300 µM AMP-pNP final concentration), and incubated for 20 minutes at 37° C. […] Each assay plate also includes wells with no enzyme added (MIN OD) and wells with no inhibitor added (MAX OD). The percent inhibition of ENPP1 for each sample is then calculated as: […]
IC50 values of compounds were calculated by entering the percent inhibition values into a sigmoidal variable slope nonlinear regression model in GraphPad Prism® software.

The target in assay [3] is T1, ENPP1. The assay is described as follows: Indirect quantitation of 2',3'-cGAMP hydrolysis (AMP-Glo Assay kit). As to conditions: cGAMP substrate; Ki from IC50 by Cheng-Prusoff; read-out: ENPP1 Inhibition -cGAMP: Ki.

As to `COc1cc2nccc(NCc3ccc(S(N)(=O)=O)cc3)c2cc1F` [Example 56, 4-(((6-fluoro-7-methoxyquinolin-4-,yl)amino)methyl)benzenesulfonamide], the “Substrate Selectivity: Ki_AMP-pNP/Ki_cGAMP” value (shortened to “Substrate Selectivity”) at ENPP1 [1] amounted to 6.3. The Ki on ENPP1 [2] and on ENPP1 [3] was < 100 nM throughout.
On to `COc1ccc2c(N3CCc4cc(NS(N)(=O)=O)ccc43)ccnc2c1` [Example 59, N-(1-(7-methoxyquinolin-4-yl)indolin-5-yl)sulfamide], for which the “Substrate Selectivity” value on ENPP1 [1] was determined as 29.6. Besides, the Ki on ENPP1 [2] and at ENPP1 [3] was < 100 nM throughout.
In the case of `COc1cc2ncnc(N3CCC(CCC(=O)NO)CC3)c2cc1OC` [Example 159, 3-(1-(6,7-dimethoxyquinazolin-4-yl)piperidin-4-yl)-N-hydroxypropanamide], the “Substrate Selectivity” value at ENPP1 [1] came to 54.8. Further, the Ki on ENPP1 [2] and on ENPP1 [3] was < 100 nM throughout.
Regarding `COc1ccc2c(-c3ccc(CCNS(N)(=O)=O)cc3)ccnc2c1` [Example 403, N-(4-(7-methoxyquinolin-4-yl)phenethyl)sulfamide], on ENPP1 [1], the “Substrate Selectivity” value was >227. Moreover, the Ki at ENPP1 [2] was > 1000 nM; on ENPP1 [3], 100 to 1000 nM.
For `COc1cc2nccc(Oc3c(F)cc(NS(N)(=O)=O)cc3F)c2cc1OC` [Example 197, N-(4-((6,7-dimethoxyquinolin-4-yl)oxy)-3,5-difluorophenyl)sulfamide] the same measures were >49.7, > 1000 nM and < 100 nM.
For `COc1cc2ncnc(N3CCC(CCC(N)=O)CC3)c2cc1OC` [Example 222, 3-(1-(6,7-dimethoxyquinazolin-4-yl)piperidin-4-yl)propanamide] the same measures were > 14.6, > 1000 nM and 100 to 1000 nM.
As for `COc1cc(F)c2c(-c3ccc(CNS(N)(=O)=O)cc3)ccnc2c1` [Example 394, N-(4-(5-fluoro-7-methoxyquinolin-4-yl)benzyl)sulfamide], the “Substrate Selectivity” value at ENPP1 [1] is listed as >95. The values for the Ki at ENPP1 [2] and at ENPP1 [3] were > 1000 nM and < 100 nM, respectively.
For `COc1ccc2c(Oc3ccc(NS(N)(=O)=O)c(Cl)c3)ccnc2c1` [Example 75, N-(2-chloro-4-((7-methoxyquinolin-4-yl)oxy)phenyl)sulfamide] the same measures were 41.3, 100 to 1000 nM and < 100 nM.
`COc1cc2nccc(-c3ccc(CN(O)C=O)cc3)c2cc1OC` [Example 284, N-(4-(6,7-dimethoxyquinolin-4-yl)benzyl)-N-hydroxyformamide]: the “Substrate Selectivity” value at ENPP1 [1] amounted to 28.6. The Ki at ENPP1 [2] and on ENPP1 [3] was < 100 nM in each case.
Consider `COc1cc2ncc(C#N)c(-c3ccc(CN(C4CC4)S(N)(=O)=O)cc3)c2cc1OC` [Example 290, N-(4-(3-cyano-6,7-dimethoxyquinolin-4-yl)benzyl)-N-cyclopropylsulfamide], for which the “Substrate Selectivity” value on ENPP1 [1] is 17.1. Also, the Ki at ENPP1 [2] is 100 to 1000 nM; at ENPP1 [3], < 100 nM.
For `COc1cc2nccc(N3CCC(CN(C4CC4)S(N)(=O)=O)CC3)c2cc1OC` [Example 212, N-cyclopropyl-N-((1-(6,7-dimethoxyquinolin-4-yl)piperidin-4-yl)methyl)sulfamide] the same measures were > 46.1, > 1000 nM and < 100 nM.
For the compound `COc1cc2ncnc(N3CCC(CCNS(N)(=O)=O)CC3)c2cc1Cl` [Example 169, N-(2-(1-(6-chloro-7-methoxyquinazolin-4-yl)piperidin-4-yl)ethyl)sulfamide], the “Substrate Selectivity” value at ENPP1 [1] was found to be 6.9. The Ki at ENPP1 [2] was 100 to 1000 nM; at ENPP1 [3] it was < 100 nM.
In the case of `NS(=O)(=O)N1CCC2(CCN(c3ccnc4cc(OC(F)F)ccc34)CC2)C1` [Example 265, 8-(7-(difluoromethoxy)quinolin-4-yl)-2,8-diazaspiro[4.5]decane-2-sulfonamide], the “Substrate Selectivity” value at ENPP1 [1] is given as >13.0. Moreover, the Ki was > 1000 nM on ENPP1 [2] and 100 to 1000 nM at ENPP1 [3].
For `COc1ccc2nccc(Oc3ccc(S(N)(=O)=O)cc3)c2c1` [Example 355, 4-((6-methoxyquinolin-4-yl)oxy)benzenesulfonamide], at ENPP1 [1], the “Substrate Selectivity” value is reported as >53. Moreover, the Ki on ENPP1 [2] is > 1000 nM; on ENPP1 [3], < 100 nM.
For `COc1cc2ncnc(NC3CCC(NS(N)(=O)=O)CC3)c2cc1OC` (stereo not drawn) [Example 272, N-(4-((6,7-dimethoxyquinazolin-4-yl)amino)cyclohexyl)sulfamide], in that order: >35.2, > 1000 nM and < 100 nM.
For `COc1cc2ncnc(NCc3ccc(C(=O)NO)cc3)c2cc1OC` [Example 196, 4-(((6,7-dimethoxyquinazolin-4-yl)amino)methyl)-N-hydroxybenzamide] the same measures were > 13.4, > 1000 nM and < 100 nM.
For `COc1ccc2c(-c3ccc(CNS(N)(=O)=O)cc3)c(F)cnc2c1` [Example 381, N-(4-(7-methoxy-3-Fluoro-quinolin-4-yl)benzyl) Sulfamide] the same measures were >38, 100 to 1000 nM and < 100 nM.
As to `COc1cc2ncc(C3CC3)c(-c3ccc4c(c3)CN(S(N)(=O)=O)CC4)c2cc1OC` [Example 283, 7-(3-cyclopropyl-6,7-dimethoxyquinolin-4-yl)-3,4-dihydroisoquinoline-2(1H)-sulfonamide], the “Substrate Selectivity” value at ENPP1 [1] was 5.4. The Ki at ENPP1 [2] and at ENPP1 [3] was < 100 nM in each case.
Consider `COc1cc2ncc(-c3ccc4c(c3)CN(S(N)(=O)=O)CC4)c(Cl)c2cc1OC` [Example 260, 7-(4-chloro-6,7-dimethoxyquinolin-3-yl)-3,4-dihydroisoquinoline-2(1H)-sulfonamide], for which, on ENPP1 [1], the “Substrate Selectivity” value worked out at 21.5. For the same compound, the inhibition constant Ki at ENPP1 [2] and on ENPP1 [3] was < 100 nM throughout.
For the compound `COc1ccc2c(-n3cnc(CNS(N)(=O)=O)c3)ccnc2c1` [Example 385, N-((1-(7-methoxyquinolin-4-yl)-1H-imidazol-4-yl)methyl)sulfamide], on ENPP1 [1], the “Substrate Selectivity” value is listed as >44. Further, the Ki is > 1000 nM at ENPP1 [2] and < 100 nM on ENPP1 [3].
For `COc1cc2ncnc(-c3ccc4c(c3)CC(NS(N)(=O)=O)C4)c2cc1OC` (stereo not drawn) [Example 122, N-(5-(6,7-dimethoxyquinazolin-4-yl)-2,3-dihydro-1H-inden-2-yl)sulfamide] the same measures were 21.9, 100 to 1000 nM and < 100 nM.
For `COc1cc2nccc(Nc3ccc(CC(=O)NO)cc3)c2cc1OC` [Example 207, 2-(4-((6,7-dimethoxyquinolin-4-yl)amino)phenyl)-N-hydroxyacetamide] the same measures were 36.8, < 100 nM and < 100 nM.
As to `COc1ccc2c(Oc3ccc(CS(N)(=O)=O)cc3)ccnc2c1` [Example 312, (4-((7-methoxyquinolin-4-yl)oxy)phenyl)methanesulfonamide], at ENPP1 [1], the “Substrate Selectivity” value was determined as 28.2. Further, the Ki on ENPP1 [2] was 100 to 1000 nM; on ENPP1 [3] it was < 100 nM.
For `COc1cc2ncnc(NCCc3ccc(NS(N)(=O)=O)cc3)c2cc1OC` [Example 156, N-(4-(2-((6,7-dimethoxyquinazolin-4-yl)amino)ethyl)phenyl) sulfamide] the same measures were 23.3, 100 to 1000 nM and < 100 nM.
